US20250281462A1, “THERAPEUTICALLY EFFECTIVE ORAL ADMINISTRATION OF A 2 ARYLBENZIMIDAZOLE” (Tranquis Therapeutics, Inc., priority 2021, published 2025)
Where “and” joins values, the source holds several entries; their conditions need not be identical. Equal values may be shown once. Read-outs that look alike come from different tables or passages of the source.

Test: Plasma concentrations of TQS-168 and TQS-621 after single oral dose 50 mg/kg in mice, three formulations
Assay type: in vivo
Details: for concentration at 1 h / concentration at 2 h / concentration at 4 h / concentration at 8 h / concentration at 12 h / concentration at 0.25 h / concentration at 0.5 h: male, C57BL/6, mouse, plasma, po, read-out: Calculated Concentration in plasma; for concentration at 1 h / concentration at 2 h / concentration at 4 h / concentration at 8 h / concentration at 12 h / concentration at 0.25 h / concentration at 0.5 h / Calculated Concentration in plasma: mice
Description: In a second experiment, mice were administered 50 mg/kg TQS-168 by oral gavage. For Group 1, TQS-168 was prepared at a concentration of 5.0 mg/mL in a suspension with […] in PBS. For Group 2, TQS-168 was prepared at a concentration of 5.0 mg/mL as a solution in 10 polyethylene glycol (PEG) 400|30 Kleptose (Roquete)|60% water.
Plasma exposures for Group 1 mice (ng/mL) are presented in Table 2 and for Group 2 mice in Table 3.
C57BL/6 male mice were administered a single dose of TQS-168 at 50 mg/kg using one of three formulations: Group 1-5.0 mg/ml suspension in 0.5% methylcellulose in PBS; Group 2-5.0 mg/ml solution in PEG400 (Fluka) 10%|Kleptose (Roquette) 30%|sterile water 60%; Group 3-5.0 mg/ml suspension in Labrafil M 1944 CS (Gattefosse) 30%|Masine CC (Gattefosse) 5%|Miglyol 812N 10%|sterile water 55%.
Plasma concentrations of TQS-168 and TQS-621 were measured overtime.

[1] = mice plasma, TQS-168 50 mg/kg p.o., Group 1 (suspension, 0.5% methylcellulose in PBS), individual mouse, 50 mg/kg
[2] = mice plasma, TQS-168 50 mg/kg p.o., Group 2 (solution, PEG400/Kleptose/water), individual mouse, 50 mg/kg
[3] = mice plasma, TQS-168 50 mg/kg p.o., Group 3 (suspension, Labrafil/Masine/Miglyol/water), individual mouse, 50 mg/kg

CC(C)(C)c1ccc(-c2nc3ccccc3[nH]2)cc1 [TQS-168, 2-(4-tert-butylphenyl)-1H-benzimidazole]
concentration at 1 h (50 mg/kg, 50 mg/kg p.o., Group 1 (suspension, methylcellulose in PBS), 1 hr, individual mouse): 1280 ng/mL
concentration at 1 h (50 mg/kg, 50 mg/kg p.o., Group 1 (suspension, methylcellulose in PBS), 1 hr, mean): 1100 ng/mL
concentration at 2 h (50 mg/kg, 50 mg/kg p.o., Group 1 (suspension, methylcellulose in PBS), 2 hr, mean): 776 ng/mL
concentration at 4 h (50 mg/kg, 50 mg/kg p.o., Group 1 (suspension, methylcellulose in PBS), 4 hr, individual mouse): 435 ng/mL
concentration at 4 h (50 mg/kg, 50 mg/kg p.o., Group 1 (suspension, methylcellulose in PBS), 4 hr, mean): 435 ng/mL
concentration at 8 h (50 mg/kg, 50 mg/kg p.o., Group 1 (suspension, methylcellulose in PBS), 8 hr, mean): 446 ng/mL
concentration at 12 h (50 mg/kg, 50 mg/kg p.o., Group 1 (suspension, methylcellulose in PBS), 12 hr, mean): 187 ng/mL
concentration at 0.25 h (50 mg/kg, 50 mg/kg p.o., Group 2 (solution, PEG 400/Kleptose/water), 0.25 hr, individual mouse): 656 ng/mL
concentration at 0.25 h (50 mg/kg, 50 mg/kg p.o., Group 2 (solution, PEG 400/Kleptose/water), 0.25 hr, mean): 900 ng/mL
concentration at 0.5 h (50 mg/kg, 50 mg/kg p.o., Group 2 (solution, PEG 400/Kleptose/water), 0.5 hr, individual mouse): 1950 ng/mL
concentration at 0.5 h (50 mg/kg, 50 mg/kg p.o., Group 2 (solution, PEG 400/Kleptose/water), 0.5 hr, mean): 1960 ng/mL
concentration at 1 h (50 mg/kg, 50 mg/kg p.o., Group 2 (solution, PEG 400/Kleptose/water), 1 hr, individual mouse): 1520 ng/mL
concentration at 1 h (50 mg/kg, 50 mg/kg p.o., Group 2 (solution, PEG 400/Kleptose/water), 1 hr, mean): 1990 ng/mL
concentration at 2 h (50 mg/kg, 50 mg/kg p.o., Group 2 (solution, PEG 400/Kleptose/water), 2 hr, individual mouse): 1810 ng/mL
concentration at 2 h (50 mg/kg, 50 mg/kg p.o., Group 2 (solution, PEG 400/Kleptose/water), 2 hr, mean): 1760 ng/mL
concentration at 4 h (50 mg/kg, 50 mg/kg p.o., Group 2 (solution, PEG 400/Kleptose/water), 4 hr, individual mouse): 1330 ng/mL
concentration at 4 h (50 mg/kg, 50 mg/kg p.o., Group 2 (solution, PEG 400/Kleptose/water), 4 hr, mean): 1200 ng/mL
concentration at 8 h (50 mg/kg, 50 mg/kg p.o., Group 2 (solution, PEG 400/Kleptose/water), 8 hr, individual mouse): 374 ng/mL
concentration at 8 h (50 mg/kg, 50 mg/kg p.o., Group 2 (solution, PEG 400/Kleptose/water), 8 hr, mean): 427 ng/mL
concentration at 12 h (50 mg/kg, 50 mg/kg p.o., Group 2 (solution, PEG 400/Kleptose/water), 12 hr, individual mouse): 185 ng/mL
concentration at 12 h (50 mg/kg, 50 mg/kg p.o., Group 2 (solution, PEG 400/Kleptose/water), 12 hr, mean): 161 ng/mL
Cmax (mice plasma, 50 mg/kg p.o., Group 2 (solution), 50 mg/kg, read-out: Cmax): 7.9 µM
AUCInf [1]: 5085 ng·h/mL and 14196 ng·h/mL and 5052 ng·h/mL
AUClast [1]: 8046 ng·h/mL and 4822 ng·h/mL
Cmax [1]: 1380 ng/mL and 704 ng/mL
t1/2 [1]: 1.74 h and 9.47 h and 1.70 h
AUCInf [2]: 11411 ng·h/mL and 11446 ng·h/mL
AUClast [2]: 11058 ng·h/mL and 10525 ng·h/mL
Cmax [2]: 2390 ng/mL and 2070 ng/mL
t1/2 [2]: 2.22 h and 3.41 h
AUCInf [3]: 4336 ng·h/mL and 3877 ng·h/mL
AUClast [3]: 3924 ng·h/mL and 3753 ng·h/mL
Cmax [3]: 752 ng/mL and 420 ng/mL
Tmax [3]: 8 h
t1/2 [3]: 2.23 h and 1.43 h
Cmax (mice plasma, TQS-168 50 mg/kg p.o., Group 3 (suspension, Labrafil/Masine/Miglyol/water), mean, 50 mg/kg): 594 ng/mL
Calculated Concentration in plasma (50 mg/kg p.o., Group 1 (suspension, methylcellulose in PBS), 0.25 hr, individual mouse, 50 mg/kg): 887 ng/mL and 485 ng/mL
Calculated Concentration in plasma (50 mg/kg p.o., Group 1 (suspension, methylcellulose in PBS), 0.5 hr, individual mouse, 50 mg/kg): 848 ng/mL and 1380 ng/mL and 619 ng/mL
Calculated Concentration in plasma (50 mg/kg p.o., Group 1 (suspension, methylcellulose in PBS), 1 hr, individual mouse, 50 mg/kg): 1310 ng/mL and 704 ng/mL
Calculated Concentration in plasma (50 mg/kg p.o., Group 1 (suspension, methylcellulose in PBS), 2 hr, individual mouse, 50 mg/kg): 839 ng/mL and 1050 ng/mL and 440 ng/mL
Calculated Concentration in plasma (50 mg/kg p.o., Group 1 (suspension, methylcellulose in PBS), 4 hr, individual mouse, 50 mg/kg): 479 ng/mL and 391 ng/mL
Calculated Concentration in plasma (50 mg/kg p.o., Group 1 (suspension, methylcellulose in PBS), 8 hr, individual mouse, 50 mg/kg): 254 ng/mL and 603 ng/mL and 480 ng/mL
Calculated Concentration in plasma (50 mg/kg p.o., Group 1 (suspension, methylcellulose in PBS), 12 hr, individual mouse, 50 mg/kg): 18.0 ng/mL and 450 ng/mL and 93.9 ng/mL
Calculated Concentration in plasma (50 mg/kg p.o., Group 1 (suspension, methylcellulose in PBS), 24 hr, individual mouse): BLOQ
Calculated Concentration in plasma (50 mg/kg p.o., Group 2 (solution, PEG 400/Kleptose/water), 0.25 hr, individual mouse, 50 mg/kg): 874 ng/mL and 1170 ng/mL
Calculated Concentration in plasma (50 mg/kg p.o., Group 2 (solution, PEG 400/Kleptose/water), 0.5 hr, individual mouse, 50 mg/kg): 2070 ng/mL and 1860 ng/mL
Calculated Concentration in plasma (50 mg/kg p.o., Group 2 (solution, PEG 400/Kleptose/water), 1 hr, individual mouse, 50 mg/kg): 2390 ng/mL and 2070 ng/mL
Calculated Concentration in plasma (50 mg/kg p.o., Group 2 (solution, PEG 400/Kleptose/water), 2 hr, individual mouse, 50 mg/kg): 1830 ng/mL and 1630 ng/mL
Calculated Concentration in plasma (50 mg/kg p.o., Group 2 (solution, PEG 400/Kleptose/water), 4 hr, individual mouse, 50 mg/kg): 1330 ng/mL and 949 ng/mL
Calculated Concentration in plasma (50 mg/kg p.o., Group 2 (solution, PEG 400/Kleptose/water), 8 hr, individual mouse, 50 mg/kg): 329 ng/mL and 579 ng/mL
Calculated Concentration in plasma (50 mg/kg p.o., Group 2 (solution, PEG 400/Kleptose/water), 12 hr, individual mouse, 50 mg/kg): 110 ng/mL and 187 ng/mL
Calculated Concentration in plasma (50 mg/kg p.o., Group 2 (solution, PEG 400/Kleptose/water), 24 hr, individual mouse): BLOQ
